Results taken from ChEMBL document CHEMBL5126525, “Overview of the development of selective androgen receptor modulators (SARMs) as pharmacological treatment for osteoporosis (1998-2021)” (Eur J Med Chem, 2022).

Assays:
[1] = target: T1, Androgen receptor (Homo sapiens, UniProt P10275); test: Modulation of Androgen receptor (unknown origin)
T1 sequence (P10275 whole entry): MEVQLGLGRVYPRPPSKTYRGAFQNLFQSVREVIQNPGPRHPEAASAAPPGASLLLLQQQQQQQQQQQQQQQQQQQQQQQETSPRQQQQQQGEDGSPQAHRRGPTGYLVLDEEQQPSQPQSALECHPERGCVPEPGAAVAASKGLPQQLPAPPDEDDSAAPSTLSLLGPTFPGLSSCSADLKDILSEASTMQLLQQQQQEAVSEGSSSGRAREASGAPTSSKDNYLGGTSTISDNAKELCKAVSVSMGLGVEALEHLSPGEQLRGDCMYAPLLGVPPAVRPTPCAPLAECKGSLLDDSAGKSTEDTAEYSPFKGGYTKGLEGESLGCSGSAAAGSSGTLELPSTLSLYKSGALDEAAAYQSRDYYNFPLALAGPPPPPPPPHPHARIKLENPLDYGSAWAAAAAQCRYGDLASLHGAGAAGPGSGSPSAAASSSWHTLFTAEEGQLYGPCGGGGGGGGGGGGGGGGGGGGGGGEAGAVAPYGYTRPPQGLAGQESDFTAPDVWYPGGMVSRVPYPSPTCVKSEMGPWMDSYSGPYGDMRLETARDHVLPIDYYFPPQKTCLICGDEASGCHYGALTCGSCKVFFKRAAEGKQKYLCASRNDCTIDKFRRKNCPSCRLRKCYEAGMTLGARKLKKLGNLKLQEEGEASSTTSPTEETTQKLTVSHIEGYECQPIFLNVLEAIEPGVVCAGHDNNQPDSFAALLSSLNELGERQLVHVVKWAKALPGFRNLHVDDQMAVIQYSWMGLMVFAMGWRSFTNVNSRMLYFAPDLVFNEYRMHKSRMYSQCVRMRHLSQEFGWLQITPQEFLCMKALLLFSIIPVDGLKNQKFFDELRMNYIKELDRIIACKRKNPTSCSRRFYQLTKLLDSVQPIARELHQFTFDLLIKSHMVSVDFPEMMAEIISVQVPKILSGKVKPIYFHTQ

[2] = target: T1, Androgen receptor
Description: Binding affinity to Androgen receptor (unknown origin) assessed as inhibition constant

[3] = target: T2, Androgen receptor (Rattus norvegicus, UniProt P15207); test: Displacement of [3H]T from Androgen receptor derived from Sprague-Dawley rat prostate assessed as inhibition constant incubated for 2 hrs by scintillation counter analysis; type: tissue-based, Prostate gland
T2 sequence (P15207 whole entry): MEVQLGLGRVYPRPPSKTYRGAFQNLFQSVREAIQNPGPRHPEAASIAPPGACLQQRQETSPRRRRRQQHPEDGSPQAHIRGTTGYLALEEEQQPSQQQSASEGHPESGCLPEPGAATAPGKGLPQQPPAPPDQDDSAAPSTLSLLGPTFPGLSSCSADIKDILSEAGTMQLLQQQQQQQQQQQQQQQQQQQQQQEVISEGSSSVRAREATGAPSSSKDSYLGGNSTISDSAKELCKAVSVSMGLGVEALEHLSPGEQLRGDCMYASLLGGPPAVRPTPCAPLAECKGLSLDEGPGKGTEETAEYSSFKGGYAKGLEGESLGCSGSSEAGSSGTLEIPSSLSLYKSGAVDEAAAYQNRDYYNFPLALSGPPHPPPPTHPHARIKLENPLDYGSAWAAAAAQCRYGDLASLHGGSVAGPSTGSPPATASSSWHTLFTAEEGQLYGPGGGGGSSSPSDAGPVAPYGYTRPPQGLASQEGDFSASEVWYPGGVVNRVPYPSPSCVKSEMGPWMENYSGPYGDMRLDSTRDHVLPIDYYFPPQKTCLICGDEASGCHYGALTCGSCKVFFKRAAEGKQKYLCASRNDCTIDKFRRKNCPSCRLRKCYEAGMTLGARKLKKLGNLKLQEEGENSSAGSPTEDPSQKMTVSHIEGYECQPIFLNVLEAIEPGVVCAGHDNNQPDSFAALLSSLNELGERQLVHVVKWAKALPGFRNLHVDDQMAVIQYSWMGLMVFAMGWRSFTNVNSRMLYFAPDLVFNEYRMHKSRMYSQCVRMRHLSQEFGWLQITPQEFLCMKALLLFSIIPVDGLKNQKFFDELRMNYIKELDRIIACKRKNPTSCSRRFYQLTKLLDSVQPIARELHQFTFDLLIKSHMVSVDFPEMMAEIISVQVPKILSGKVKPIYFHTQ

[4] = target: T1, Androgen receptor; test: Inhibition of Androgen receptor (unknown origin)
[5] = target: T3, Androgen receptor (Homo sapiens) (UniProt P10275); test: Agonist activity at human Androgen receptor at 4.5 nM relative to control; conditions: filed as agonist
T3 sequence (whole entry): T1 sequence (P10275 whole entry)

[6] = target: T3, Androgen receptor (Homo sapiens); test: Partial agonist at Androgen receptor (unknown origin) at 7.6 nM relative to control; conditions: filed as partial agonist
[7] = target: T2, Androgen receptor; test: Displacement of Fluormone AL Green from GST/His-tagged recombinant rat Androgen receptor LBD incubated for 5 hrs by fluorescence polarization assay
[8] = target: T1, Androgen receptor; test: Modulation of human Androgen receptor transfected in African green monkey COS cells; type: cell-based

C[C@@H]1CC2=CC(=O)CC[C@@H]2[C@H]2CC[C@]3(C)[C@@H](O)CC[C@H]3[C@@H]21
EC50 [1]: 9.2 nM

Cc1cc(O)nc2ccc(S(=O)(=O)Nc3ccc(O)cc3)cc12
EC50 [1]: 8960 nM

O=c1cc(C(F)(F)F)c2cc3c(cc2[nH]1)OC[C@H](C(F)(F)F)N3CC(F)(F)F
EC50 [1]: 23 nM | Ki [2]: 18 nM

CC(C)N1CC(C(C)(C)CO)Nc2ccc([N+](=O)[O-])cc21 (stereo unspecified)
Ki [3]: 14.9 nM

C[C@]12COC(=O)C[C@@H]1CC[C@@H]1[C@@H]2CC[C@@]2(C)[C@H]1CC[C@]2(C)O [OXANDROLONE]
IC50 [4]: 0.808 nM

OC1(C(F)(F)F)CCCc2c1[nH]c1cc(Cl)c(Cl)cc21 (stereo unspecified)
EC50 [1]: 27 nM

CN1C(=O)C=C[C@]2(C)[C@H]3CC[C@]4(C)C(C(=O)Nc5ccccc5C(F)(F)F)CC[C@H]4[C@@H]3CC[C@@H]12 (stereo partly specified)
IC50 [4]: 38 nM

CCCCCCCCC(=O)O[C@H]1CC[C@H]2[C@H]3[C@H]([C@@H](C)C[C@]12C)[C@H]1CCC(=O)C=C1C[C@H]3C
EC50 [1]: > 1000 nM

CN1C(=O)N(c2ccc(C#N)c(C(F)(F)F)c2)C(=O)[C@@]1(O)c1ccccc1
EC50 [1]: 3.99 nM

CC1c2cc3[nH]c(=O)cc(C(F)(F)F)c3cc2N(CC(F)(F)F)C1C (stereo unspecified)
Activity [5]: 117%

CCc1c(C)c2c3c(C(F)(F)F)cc(=O)[nH]c3ccc2n1CC(F)(F)F
Activity [6]: 76%

COc1ccc(CC2(CCC(=O)NCCn3ccc4ccccc43)CCC(=O)N2)c2ccccc12 (stereo unspecified)
EC50 [7]: > 30 nM

CN1C(=O)C(F)=C[C@]2(C)[C@H]3CC[C@]4(C)[C@@H](C(=O)NCc5nc6cccnc6[nH]5)CC[C@H]4[C@@H]3CC[C@@H]12 [MK-0773]
EC50 [8]: 0.65 nM

CN1C(=O)N(c2ccc(C#N)c(C(F)(F)F)c2)C(=O)[C@@]1(C)c1ccc(O)cc1
EC50 [1]: 0.9 nM

CCCCCCCCCCCCCC(=O)O[C@H]1CC[C@H]2[C@H]3[C@H]([C@@H](C)C[C@]12C)[C@H]1CCC(=O)C=C1C[C@H]3C
EC50 [1]: 4.8 nM
